# Experimental data: patent publication US20080009418A1, “Selective Inhibitors” (Alchemia LTD., priority 2004, published 2008)
# Legend:
# Details in all cases: compound at 10 μM
# Human melanocortin (MC5) = molecular target: T1, Human melanocortin (MC5) (Homo sapiens, UniProt P33032); experiment: Radioligand binding, human melanocortin MC5 membranes, FlashPlate, [125I]-NDP-αMSH
# T1 construct: purchased Perkin Elmer Biosignal
# In short: (§1)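 Cloned human receptor membranes were coated onto FlashPlate wells and incubated with radioligand and compound (added from a 0.5 mM DMSO daughter plate) for 1 hour at room temperature in the dark. Scintillation counting gave percent inhibition, with DMSO defining total and reference ligand defining non-specific binding.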
# Mouse urotensin (mUR2) = molecular target: T2, Mouse urotensin (mUR2) (Mus musculus, UniProt Q8VIH9); experiment: Radioligand binding, mouse urotensin mUR2 membranes, FlashPlate, [125I]-Urotensin II
# T2 construct: purchased Perkin Elmer Biosignal
# T2 sequence (Q8VIH9 1-385): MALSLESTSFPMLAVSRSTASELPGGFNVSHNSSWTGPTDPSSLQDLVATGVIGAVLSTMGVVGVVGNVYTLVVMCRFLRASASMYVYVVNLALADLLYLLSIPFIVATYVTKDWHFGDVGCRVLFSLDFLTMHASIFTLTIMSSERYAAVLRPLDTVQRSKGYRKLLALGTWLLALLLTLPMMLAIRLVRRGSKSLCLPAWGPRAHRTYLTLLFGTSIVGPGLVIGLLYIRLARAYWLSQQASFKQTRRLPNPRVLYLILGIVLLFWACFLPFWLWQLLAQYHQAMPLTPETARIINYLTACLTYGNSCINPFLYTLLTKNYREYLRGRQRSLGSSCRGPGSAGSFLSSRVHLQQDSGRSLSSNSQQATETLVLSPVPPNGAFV
# In short: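 Cloned mouse urotensin (mUR2) receptor membranes from Perkin Elmer Biosignal were immobilized in FlashPlate microplates using a proprietary coating. Each well got 19.5 μl buffer, then 0.5 μl of DMSO, reference ligand, or compound. Adding 5 μl of [125I]-Urotensin II, diluted to 5× final concentration in binding buffer, started binding. Plates were sealed with TopSeal-A and incubated 1 hour at room temperature in the dark. Wells were counted for 30 seconds each on a TopCount after a 60-second delay, and percentage inhibition was calculated.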
# Human δ-opioid (DOP) = molecular target: T3, Human δ-opioid (DOP) (Homo sapiens, UniProt P41143); experiment: Radioligand binding, human δ-opioid (DOP) membranes, FlashPlate, [3H]-Bremazocine
# T3 construct: purchased Perkin Elmer Biosignal
# In short: as §1
# Human Melanocortin (MC3) = molecular target: T4, Human Melanocortin (MC3) (Homo sapiens, UniProt P41968); experiment: Radioligand binding, human melanocortin MC3 membranes, FlashPlate, [125I]-NDP-αMSH
# T4 construct: purchased Perkin Elmer Biosignal
# In short: as §1
# [1] = molecular target: T5, Human neuropeptide Y (NPY-Y1) (Homo sapiens, UniProt P25929); experiment: Radioligand binding, human neuropeptide Y NPY-Y1 membranes, FlashPlate, [125I]-PYY
# T5 construct: purchased Perkin Elmer Biosignal
# T5 sequence (P25929 1-384): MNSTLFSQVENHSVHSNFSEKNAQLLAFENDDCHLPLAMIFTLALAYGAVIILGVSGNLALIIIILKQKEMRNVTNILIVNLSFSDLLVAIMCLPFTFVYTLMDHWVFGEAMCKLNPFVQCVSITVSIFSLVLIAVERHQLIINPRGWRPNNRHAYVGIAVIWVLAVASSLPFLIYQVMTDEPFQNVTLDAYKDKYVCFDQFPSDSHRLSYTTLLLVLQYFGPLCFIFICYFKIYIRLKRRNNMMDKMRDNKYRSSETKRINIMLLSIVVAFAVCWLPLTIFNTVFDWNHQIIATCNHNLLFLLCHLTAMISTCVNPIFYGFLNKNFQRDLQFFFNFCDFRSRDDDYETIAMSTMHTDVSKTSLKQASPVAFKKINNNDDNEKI
# In short: as §1
# Human Melanocortin (MC4) = molecular target: T6, Human Melanocortin (MC4) (Homo sapiens, UniProt P32245); experiment: Radioligand binding, human melanocortin MC4 membranes, FlashPlate, [125I]-NDP-αMSH
# T6 construct: purchased Perkin Elmer Biosignal
# In short: as §1
# Human μ-opioid (MOP) = molecular target: T7, Human μ-opioid (MOP) (Homo sapiens, UniProt P35372); experiment: Radioligand binding, human μ-opioid (MOP) membranes, FlashPlate, [3H]-Naloxone
# T7 construct: purchased Perkin Elmer Biosignal
# In short: as §1
# Human neurokinin (NK1) = molecular target: T8, Human neurokinin (NK1) (Homo sapiens, UniProt P25103); experiment: Radioligand binding, human neurokinin NK1 membranes, filtration, [125I]-Substance P
# T8 construct: purchased Perkin Elmer Biosignal
# In short: (§2)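 Membranes from cloned human receptors were incubated with compound and radioligand for 1 hour at room temperature. Bound ligand was collected on 0.3% PEI-soaked filters, washed with cold 50 mM Tris-HCl pH 7.4, and counted by scintillation. Percent inhibition was computed against DMSO totals and reference-ligand nonspecific wells.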
# Human κ-Opioid (KOP) = molecular target: T9, Human κ-Opioid (KOP) (Homo sapiens, UniProt P41145); experiment: Radioligand binding, human κ-opioid (KOP) membranes, filtration, [3H]-Diprenorphine
# T9 construct: purchased Perkin Elmer Biosignal
# In short: as §2
# Human opioid (ORL1) = molecular target: T10, Human opioid (ORL1) (Homo sapiens, UniProt P41146); experiment: Radioligand binding, human opioid ORL1 membranes, FlashPlate, [125I]-Nociceptin
# T10 construct: purchased Perkin Elmer Biosignal
# In short: as §1
# [2] = molecular target: T11, Human melanin-concentrating hormone (MCH1) (Homo sapiens, UniProt Q99705); experiment: Radioligand binding, human melanin-concentrating hormone MCH1 membranes, FlashPlate, [125I]-S36057
# T11 construct: purchased Perkin Elmer Biosignal
# In short: as §1
# T4 sequence (P41968 whole entry): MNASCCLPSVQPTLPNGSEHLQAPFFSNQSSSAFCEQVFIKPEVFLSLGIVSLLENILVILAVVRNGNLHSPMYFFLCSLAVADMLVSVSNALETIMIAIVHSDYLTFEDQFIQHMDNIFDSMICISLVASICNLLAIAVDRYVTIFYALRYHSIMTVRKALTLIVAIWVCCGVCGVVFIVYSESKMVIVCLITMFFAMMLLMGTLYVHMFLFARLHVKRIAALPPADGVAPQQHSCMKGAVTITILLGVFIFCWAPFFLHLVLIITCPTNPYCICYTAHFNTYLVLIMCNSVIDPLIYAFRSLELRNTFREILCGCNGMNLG
# T9 sequence (P41145 whole entry): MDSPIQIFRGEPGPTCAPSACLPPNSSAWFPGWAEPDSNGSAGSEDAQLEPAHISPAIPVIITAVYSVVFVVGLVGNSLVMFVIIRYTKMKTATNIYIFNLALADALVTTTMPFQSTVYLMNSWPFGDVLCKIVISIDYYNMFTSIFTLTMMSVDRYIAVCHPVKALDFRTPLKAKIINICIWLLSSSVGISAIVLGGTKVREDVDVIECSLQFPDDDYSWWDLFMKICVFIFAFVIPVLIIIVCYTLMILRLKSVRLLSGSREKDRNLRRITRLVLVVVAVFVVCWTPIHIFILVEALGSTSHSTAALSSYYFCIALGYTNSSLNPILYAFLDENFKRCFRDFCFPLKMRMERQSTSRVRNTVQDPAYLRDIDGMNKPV
# T1 sequence (P33032 whole entry): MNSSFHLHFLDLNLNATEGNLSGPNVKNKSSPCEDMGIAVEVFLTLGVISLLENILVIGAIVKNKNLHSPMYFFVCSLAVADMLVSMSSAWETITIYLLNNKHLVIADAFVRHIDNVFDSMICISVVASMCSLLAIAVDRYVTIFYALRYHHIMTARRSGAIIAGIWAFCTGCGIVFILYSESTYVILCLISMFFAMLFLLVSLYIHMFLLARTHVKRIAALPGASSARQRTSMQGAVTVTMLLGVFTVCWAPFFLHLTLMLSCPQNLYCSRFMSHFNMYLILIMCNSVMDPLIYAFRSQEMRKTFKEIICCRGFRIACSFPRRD
# T10 sequence (P41146 whole entry): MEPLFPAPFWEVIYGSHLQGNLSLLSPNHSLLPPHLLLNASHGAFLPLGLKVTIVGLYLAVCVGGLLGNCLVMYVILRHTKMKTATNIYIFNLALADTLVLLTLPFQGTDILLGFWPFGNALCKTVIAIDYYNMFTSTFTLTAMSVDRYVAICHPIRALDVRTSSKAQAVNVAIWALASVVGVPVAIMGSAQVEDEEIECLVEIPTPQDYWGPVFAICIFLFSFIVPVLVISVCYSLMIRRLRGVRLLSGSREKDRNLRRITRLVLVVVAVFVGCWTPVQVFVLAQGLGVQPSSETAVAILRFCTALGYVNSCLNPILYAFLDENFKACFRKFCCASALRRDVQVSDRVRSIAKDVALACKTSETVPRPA
# T3 sequence (P41143 whole entry): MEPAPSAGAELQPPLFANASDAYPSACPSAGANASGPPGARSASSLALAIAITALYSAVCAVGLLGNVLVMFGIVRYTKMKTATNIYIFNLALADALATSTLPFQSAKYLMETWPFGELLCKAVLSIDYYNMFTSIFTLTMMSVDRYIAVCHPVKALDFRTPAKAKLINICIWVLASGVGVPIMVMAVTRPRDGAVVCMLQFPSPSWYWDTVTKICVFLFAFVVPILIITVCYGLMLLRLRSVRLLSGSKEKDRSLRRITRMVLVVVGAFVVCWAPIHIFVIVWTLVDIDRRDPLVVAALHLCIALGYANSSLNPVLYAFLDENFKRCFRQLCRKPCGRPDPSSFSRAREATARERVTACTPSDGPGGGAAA
# T8 sequence (P25103 whole entry): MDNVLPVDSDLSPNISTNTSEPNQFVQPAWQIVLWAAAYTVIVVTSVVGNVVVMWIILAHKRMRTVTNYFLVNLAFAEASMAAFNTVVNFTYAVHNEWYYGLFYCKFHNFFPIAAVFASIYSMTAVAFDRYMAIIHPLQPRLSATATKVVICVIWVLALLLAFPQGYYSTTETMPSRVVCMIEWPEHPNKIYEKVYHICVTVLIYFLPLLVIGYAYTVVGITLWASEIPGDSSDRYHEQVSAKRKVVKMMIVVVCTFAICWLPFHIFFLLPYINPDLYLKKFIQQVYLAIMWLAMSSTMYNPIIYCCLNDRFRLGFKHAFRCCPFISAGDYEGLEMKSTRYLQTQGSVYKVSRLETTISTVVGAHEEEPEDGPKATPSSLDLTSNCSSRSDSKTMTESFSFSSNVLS
# T11 sequence (Q99705 whole entry): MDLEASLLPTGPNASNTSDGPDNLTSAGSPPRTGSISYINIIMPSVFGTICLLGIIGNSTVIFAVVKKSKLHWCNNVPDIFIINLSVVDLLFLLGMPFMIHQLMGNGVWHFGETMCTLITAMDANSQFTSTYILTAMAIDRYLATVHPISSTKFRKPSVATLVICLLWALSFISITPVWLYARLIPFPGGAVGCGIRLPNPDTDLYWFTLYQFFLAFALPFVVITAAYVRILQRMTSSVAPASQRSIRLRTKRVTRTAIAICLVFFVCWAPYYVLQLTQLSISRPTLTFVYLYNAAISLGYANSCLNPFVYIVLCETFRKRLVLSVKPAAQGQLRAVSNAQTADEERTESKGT
# T7 sequence (P35372 whole entry): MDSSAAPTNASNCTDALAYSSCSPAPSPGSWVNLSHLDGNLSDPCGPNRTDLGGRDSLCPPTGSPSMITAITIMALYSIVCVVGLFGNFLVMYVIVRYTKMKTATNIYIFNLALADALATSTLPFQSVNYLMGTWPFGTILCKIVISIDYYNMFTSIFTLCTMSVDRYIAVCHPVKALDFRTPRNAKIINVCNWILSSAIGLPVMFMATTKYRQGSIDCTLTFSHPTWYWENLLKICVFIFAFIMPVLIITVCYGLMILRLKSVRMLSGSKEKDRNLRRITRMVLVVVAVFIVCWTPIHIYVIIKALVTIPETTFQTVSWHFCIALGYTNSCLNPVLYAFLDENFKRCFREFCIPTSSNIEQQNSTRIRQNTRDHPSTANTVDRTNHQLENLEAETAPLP
# T6 sequence (P32245 whole entry): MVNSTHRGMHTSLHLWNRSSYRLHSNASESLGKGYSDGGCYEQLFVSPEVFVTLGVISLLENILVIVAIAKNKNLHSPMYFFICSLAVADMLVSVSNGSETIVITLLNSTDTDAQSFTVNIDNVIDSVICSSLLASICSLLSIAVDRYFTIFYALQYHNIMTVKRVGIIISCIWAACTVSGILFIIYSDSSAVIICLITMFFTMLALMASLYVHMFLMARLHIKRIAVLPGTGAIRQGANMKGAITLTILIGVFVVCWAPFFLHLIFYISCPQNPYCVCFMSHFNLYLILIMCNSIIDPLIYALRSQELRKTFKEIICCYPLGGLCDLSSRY
smiles,measurement,setting,value
COC[C@H]1OC(OCc2ccc3ccccc3c2)[C@H](NC(=O)CCCN)[C@@H](OCc2ccccc2)[C@@H]1O (stereo partly shown) [compound 20],A5 radioligand binding inhibition,Human melanocortin (MC5); human melanocortin MC5 membranes,− (“−” indicates less than 50% inhibition at 10 μM)
same,A11 radioligand binding inhibition,Mouse urotensin (mUR2); mouse urotensin mUR2 membranes,− (“−” indicates less than 50% inhibition at 10 μM)
same,A1 radioligand binding inhibition,Human δ-opioid (DOP); human δ-opioid (DOP) membranes,− (“−” indicates less than 50% inhibition at 10 μM)
same,A3 radioligand binding inhibition,Human Melanocortin (MC3); human melanocortin MC3 membranes,− (“−” indicates less than 50% inhibition at 10 μM)
same,A9 radioligand binding inhibition,[1]; human NPY-Y1 membranes,− (“−” indicates less than 50% inhibition at 10 μM)
same,A4 radioligand binding inhibition,Human Melanocortin (MC4); human melanocortin MC4 membranes,− (“−” indicates less than 50% inhibition at 10 μM)
same,A7 radioligand binding inhibition,Human μ-opioid (MOP); human μ-opioid (MOP) membranes,− (“−” indicates less than 50% inhibition at 10 μM)
same,A8 radioligand binding inhibition,Human neurokinin (NK1); human neurokinin NK1 membranes,+ (“+” indicates greater than 50% inhibition at 10 μM)
same,A2 radioligand binding inhibition,Human κ-Opioid (KOP); human κ-opioid (KOP) membranes,− (“−” indicates less than 50% inhibition at 10 μM)
same,A10 radioligand binding inhibition,Human opioid (ORL1); human ORL1 membranes,− (“−” indicates less than 50% inhibition at 10 μM)
same,A6 radioligand binding inhibition,[2]; human MCH1 membranes,− (“−” indicates less than 50% inhibition at 10 μM)
CO[C@H]1[C@H](O)[C@@H](COCc2ccc3ccccc3c2)OC(OCc2ccc(Cl)cc2)[C@@H]1NC(=O)CCCN (stereo partly shown) [compound 99],"A5 radioligand binding, percentage inhibition",Human melanocortin (MC5); [125I]-NDP-αMSH,+ (“+” indicates greater than 50% inhibition at 10 μM)
same,"A11 radioligand binding, percentage inhibition",Mouse urotensin (mUR2); [125I]-Urotensin II,− (“−” indicates less than 50% inhibition at 10 μM)
same,"A1 radioligand binding, percentage inhibition",Human δ-opioid (DOP); [3H]-Bremazocine,− (“−” indicates less than 50% inhibition at 10 μM)
same,"A3 radioligand binding, percentage inhibition",Human Melanocortin (MC3); [125I]-NDP-αMSH,− (“−” indicates less than 50% inhibition at 10 μM)
same,"A9 radioligand binding, percentage inhibition",[1]; [125I]-PYY,− (“−” indicates less than 50% inhibition at 10 μM)
same,"A4 radioligand binding, percentage inhibition",Human Melanocortin (MC4); [125I]-NDP-αMSH,+ (“+” indicates greater than 50% inhibition at 10 μM)
same,"A7 radioligand binding, percentage inhibition",Human μ-opioid (MOP); [3H]-Naloxone,− (“−” indicates less than 50% inhibition at 10 μM)
same,"A8 radioligand binding, percentage inhibition",Human neurokinin (NK1); [125I]-Substance P,+ (“+” indicates greater than 50% inhibition at 10 μM)
same,"A2 radioligand binding, percentage inhibition",Human κ-Opioid (KOP); [3H]-Diprenorphine,− (“−” indicates less than 50% inhibition at 10 μM)
same,"A10 radioligand binding, percentage inhibition",Human opioid (ORL1); [125I]-Nociceptin,− (“−” indicates less than 50% inhibition at 10 μM)
same,"A6 radioligand binding, percentage inhibition",[2]; [125I]-S36057,− (“−” indicates less than 50% inhibition at 10 μM)
"NCCC(=O)NC1C(OCc2ccc(Cl)cc2)OC(COCc2ccc(Cl)cc2)C(O)C1OCc1ccccc1 (single isomer, unassigned) [compound 487]","A5: inhibition of radioligand binding, human melanocortin (MC5)",Human melanocortin (MC5); [125I]-NDP-αMSH,+ (“+” indicates greater than 50% inhibition at 10 μM)
same,"A11: inhibition of radioligand binding, mouse urotensin (mUR2)",Mouse urotensin (mUR2); [125I]-Urotensin II,− (“−” indicates less than 50% inhibition at 10 μM)
same,"A1: inhibition of radioligand binding, human δ-opioid (DOP)",Human δ-opioid (DOP); [3H]-Bremazocine,− (“−” indicates less than 50% inhibition at 10 μM)
same,"A3: inhibition of radioligand binding, human melanocortin (MC3)",Human Melanocortin (MC3); [125I]-NDP-αMSH,− (“−” indicates less than 50% inhibition at 10 μM)
same,"A9: inhibition of radioligand binding, human neuropeptide Y (NPY-Y1)",[1]; [125I]-PYY,− (“−” indicates less than 50% inhibition at 10 μM)
same,"A4: inhibition of radioligand binding, human melanocortin (MC4)","Human Melanocortin (MC4); [125I]-NDP-αMSH, 10 µM",− (“−” indicates less than 50% inhibition at 10 μM)
same,"A7: inhibition of radioligand binding, human μ-opioid (MOP)","Human μ-opioid (MOP); [3H]-Naloxone, 10 µM",+ (“+” indicates greater than 50% inhibition at 10 μM)
same,"A8: inhibition of radioligand binding, human neurokinin (NK1)","Human neurokinin (NK1); [125I]-Substance P, 10 µM",− (“−” indicates less than 50% inhibition at 10 μM)
same,"A2: inhibition of radioligand binding, human κ-opioid (KOP)",Human κ-Opioid (KOP); [3H]-Diprenorphine,− (“−” indicates less than 50% inhibition at 10 μM)
same,"A10: inhibition of radioligand binding, human opioid (ORL1)","Human opioid (ORL1); [125I]-Nociceptin, 10 µM",− (“−” indicates less than 50% inhibition at 10 μM)
same,"A6: inhibition of radioligand binding, human melanin-concentrating hormone (MCH1)",[2]; [125I]-S36057,− (“−” indicates less than 50% inhibition at 10 μM)
CO[C@H]1[C@H](O)[C@@H](COCc2cccc(O)c2)OC(OCCc2ccccc2)[C@@H]1NC(=O)CNC(=N)N (stereo partly shown) [compound 158],"A5 radioligand binding, percentage inhibition",Human melanocortin (MC5); [125I]-NDP-αMSH,− (“−” indicates less than 50% inhibition at 10 μM)
same,"A11 radioligand binding, percentage inhibition",Mouse urotensin (mUR2); [125I]-Urotensin II,− (“−” indicates less than 50% inhibition at 10 μM)
same,"A1 radioligand binding, percentage inhibition",Human δ-opioid (DOP); [3H]-Bremazocine,− (“−” indicates less than 50% inhibition at 10 μM)
same,"A3 radioligand binding, percentage inhibition",Human Melanocortin (MC3); [125I]-NDP-αMSH,− (“−” indicates less than 50% inhibition at 10 μM)
same,"A9 radioligand binding, percentage inhibition",[1]; [125I]-PYY,− (“−” indicates less than 50% inhibition at 10 μM)
same,"A4 radioligand binding, percentage inhibition",Human Melanocortin (MC4); [125I]-NDP-αMSH,− (“−” indicates less than 50% inhibition at 10 μM)
same,"A7 radioligand binding, percentage inhibition",Human μ-opioid (MOP); [3H]-Naloxone,− (“−” indicates less than 50% inhibition at 10 μM)
same,"A8 radioligand binding, percentage inhibition",Human neurokinin (NK1); [125I]-Substance P,+ (“+” indicates greater than 50% inhibition at 10 μM)
same,"A2 radioligand binding, percentage inhibition",Human κ-Opioid (KOP); [3H]-Diprenorphine,− (“−” indicates less than 50% inhibition at 10 μM)
same,"A10 radioligand binding, percentage inhibition",Human opioid (ORL1); [125I]-Nociceptin,− (“−” indicates less than 50% inhibition at 10 μM)
same,"A6 radioligand binding, percentage inhibition",[2]; [125I]-S36057,− (“−” indicates less than 50% inhibition at 10 μM)
COCC1OC(OCc2ccc3ccccc3c2)C(NC(=O)CCNC(=N)N)C(OCc2ccc(-c3ccccc3)cc2)C1O (stereo not shown) [compound 244],A5: inhibition of radioligand binding,"Human melanocortin (MC5); [125I]-NDP-αMSH, FlashPlate",+ (“+” indicates greater than 50% inhibition at 10 μM)
same,A11: inhibition of radioligand binding,"Mouse urotensin (mUR2); [125I]-Urotensin II, FlashPlate",− (“−” indicates less than 50% inhibition at 10 μM)
same,A1: inhibition of radioligand binding,"Human δ-opioid (DOP); [3H]-Bremazocine, FlashPlate",− (“−” indicates less than 50% inhibition at 10 μM)
same,A3: inhibition of radioligand binding,"Human Melanocortin (MC3); [125I]-NDP-αMSH, FlashPlate",+ (“+” indicates greater than 50% inhibition at 10 μM)
same,A9: inhibition of radioligand binding,"[1]; [125I]-PYY, FlashPlate",+ (“+” indicates greater than 50% inhibition at 10 μM)
same,A4: inhibition of radioligand binding,"Human Melanocortin (MC4); [125I]-NDP-αMSH, FlashPlate",+ (“+” indicates greater than 50% inhibition at 10 μM)
same,A7: inhibition of radioligand binding,"Human μ-opioid (MOP); [3H]-Naloxone, FlashPlate",− (“−” indicates less than 50% inhibition at 10 μM)
same,A8: inhibition of radioligand binding,"Human neurokinin (NK1); [125I]-Substance P, filtration",+ (“+” indicates greater than 50% inhibition at 10 μM)
same,A2: inhibition of radioligand binding,"Human κ-Opioid (KOP); [3H]-Diprenorphine, filtration",− (“−” indicates less than 50% inhibition at 10 μM)
same,A10: inhibition of radioligand binding,"Human opioid (ORL1); [125I]-Nociceptin, FlashPlate",− (“−” indicates less than 50% inhibition at 10 μM)
same,A6: inhibition of radioligand binding,"[2]; [125I]-S36057, FlashPlate",+ (“+” indicates greater than 50% inhibition at 10 μM)
